# According to PubChem BioAssay AID2060332 (Molecular Pharmacology Branch, DTP, NCI, 2025):
# Tested on: LG0567-F671-PDC multi-cell spheroid viability
# Assay: Anticancer human tumor LG0567-F671-PDC patient-derived lung adenocarcinoma cell line growth inhibition [IpAb]
# Details: for IC50: curve of first compound; for viability, T/C: stronger effect = lower value
# Outline: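 Multi-cell spheroids of 60% tumour cells, 25% HUVEC and 15% MSC in ultra-low-attachment U-bottom wells, treated with agents combined with ipatasertib or abemaciclib. Half-log ranges top out near clinical Cmax, or 10 microM when Cmax is unknown.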
# [1] = second compound 0.01 µM, first compound 0.0316 µM
# [2] = second compound 0.01 µM, first compound 0.1 µM
# [3] = second compound 0.01 µM, first compound 0.316 µM
# [4] = second compound 0.01 µM, first compound 1 µM
# [5] = second compound 0.01 µM, first compound 3.16 µM
# [6] = second compound 0.01 µM, first compound 10 µM
# [7] = second compound 0.0316 µM, first compound 0.0316 µM
# [8] = second compound 0.0316 µM, first compound 0.1 µM
# [9] = second compound 0.0316 µM, first compound 0.316 µM
# [10] = second compound 0.0316 µM, first compound 1 µM
# [11] = second compound 0.0316 µM, first compound 3.16 µM
# [12] = second compound 0.0316 µM, first compound 10 µM
# [13] = second compound 0.1 µM, first compound 0.0316 µM
# [14] = second compound 0.1 µM, first compound 0.1 µM
# [15] = second compound 0.1 µM, first compound 0.316 µM
# [16] = second compound 0.1 µM, first compound 1 µM
# [17] = second compound 0.1 µM, first compound 3.16 µM
# [18] = second compound 0.1 µM, first compound 10 µM
# [19] = second compound 0.316 µM, first compound 0.0316 µM
# [20] = second compound 0.316 µM, first compound 0.1 µM
# [21] = second compound 0.316 µM, first compound 0.316 µM
# [22] = second compound 0.316 µM, first compound 1 µM
# [23] = second compound 0.316 µM, first compound 3.16 µM
# [24] = second compound 0.316 µM, first compound 10 µM
# [25] = second compound 1 µM, first compound 0.0316 µM
# [26] = second compound 1 µM, first compound 0.1 µM
# [27] = second compound 1 µM, first compound 0.316 µM
# [28] = second compound 1 µM, first compound 1 µM
# [29] = second compound 1 µM, first compound 3.16 µM
# [30] = second compound 1 µM, first compound 10 µM
# 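Also: viability read after 7 days of drug exposure.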
# 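For viability, T/C in this document: 100% = DMSO vehicle control luminescence.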
SMILES,IC50 (second compound 0.01 µM) [nM],IC50 (second compound 0.0316 µM) [nM],IC50 (second compound 0.1 µM) [nM],IC50 (second compound 0.316 µM) [nM],IC50 (second compound 1 µM) [nM],"viability, T/C [1] [%]","viability, T/C [2] [%]","viability, T/C [3] [%]","viability, T/C [4] [%]","viability, T/C [5] [%]","viability, T/C [6] [%]","viability, T/C [7] [%]","viability, T/C [8] [%]","viability, T/C [9] [%]","viability, T/C [10] [%]","viability, T/C [11] [%]","viability, T/C [12] [%]","viability, T/C [13] [%]","viability, T/C [14] [%]","viability, T/C [15] [%]",also measured
Cc1nc(NC(=O)N2CCCC2C(N)=O)sc1-c1ccnc(C(C)(C)C(F)(F)F)c1 (stereo not given) + CCN1CCN(Cc2ccc(Nc3ncc(F)c(-c4cc(F)c5nc(C)n(C(C)C)c5c4)n3)nc2)CC1,1080,658,387,181,481,80.2,66.6,56,54.3,43.5,32.4,51.6,75.1,57.4,44.6,41.1,33.7,57.4,56.8,49.2,"viability, T/C [16]: 46%; viability, T/C [17]: 34.6%; viability, T/C [18]: 27.5%; viability, T/C [19]: 55.5%; viability, T/C [20]: 48.1%; viability, T/C [21]: 53.5%; viability, T/C [22]: 41.1%; viability, T/C [23]: 35.5%; viability, T/C [24]: 29.6%; viability, T/C [25]: 49.5%; viability, T/C [26]: 63.5%; viability, T/C [27]: 55.4%; viability, T/C [28]: 40.5%; viability, T/C [29]: 42.5%; viability, T/C [30]: 38.3%"
Cn1nccc1Nc1nccc(-c2ccn(C(CO)c3ccc(Cl)c(F)c3)c(=O)c2)n1 (stereo not given) + CCN1CCN(Cc2ccc(Nc3ncc(F)c(-c4cc(F)c5nc(C)n(C(C)C)c5c4)n3)nc2)CC1,121,131,87.3,< 31.6,< 31.6,77.9,47.2,46.7,31.2,26.9,29.6,60.9,48.9,45.9,28,26.2,24.9,57.1,48.3,40.5,"viability, T/C [16]: 28.1%; viability, T/C [17]: 31.2%; viability, T/C [18]: 24.9%; viability, T/C [19]: 49.7%; viability, T/C [20]: 46.4%; viability, T/C [21]: 37.1%; viability, T/C [22]: 34%; viability, T/C [23]: 24.6%; viability, T/C [24]: 28.5%; viability, T/C [25]: 42.8%; viability, T/C [26]: 50%; viability, T/C [27]: 40.3%; viability, T/C [28]: 29.3%; viability, T/C [29]: 25.5%; viability, T/C [30]: 23.1%"
